Laboratory results reported in US20180116993A1, “MODULATORS OF FARNESOID X RECEPTOR AND METHODS FOR THE USE THEREOF” (XIAMEN UNIVERSITY, priority 2015, published 2018).
Like-named read-outs stand apart in the source and are kept apart here. Marks after values point to notes of the source that are not given here.

Assays:
[1] = test system: human hepatoma HepG2 cells; assay: MTT cell viability assay, HepG2; type: cell-based; settings: 48 h, read-out: Cell viability as a percentage of the cells treated with DMSO, HepG2
From the text: (§1) The MTT assay is a colorimetric assay for assessing cell metabolic activity. It is widely used in high-throughput screening of antitumor drugs due to its high sensitivity and economical features. In this example, MTT was used to detect the inhibitory effects of compounds on various cancer cell lines. Cancer cells including human colorectal adenocarcinoma HCT15 cells, RA-resistant human colon cancer HCT116 cells, human cervical carcinoma Hela cells, human hepatoma HepG2 cells and human breast cancer MCF7 cells were cultured in DMEM medium containing 10% fetal bovine serum. 20 uM or 40 uM of compounds were administered to treat cells, cell viability is detected by MTT assay and expressed as a percentage of the cells treated with DMSO (Table 4).

[2] = test system: human colorectal adenocarcinoma HCT15 cells; assay: MTT cell viability assay, HCT15; type: cell-based; settings: 48 h, read-out: Cell viability as a percentage of the cells treated with DMSO, HCT15; for viability at 20 µM: HCT-15, 20 uM; for viability at 40 µM: HCT-15, 40 uM
From the text: as §1

[3] = molecular target: T1, full-length FXR (Homo sapiens, UniProt Q96RI1); assay: Cell-based FXR transactivation, EcRE luciferase reporter in COS-7 cells; settings: Table 2; for Cell-based FXR transactivation Fold changes by 5 μM compound: positive: induction, minus: repression; for EC50: EcRE luciferase reporter
T1 construct: The cells were co-transfected with plasmids encoding full-length FXR and the cognate luciferase reporter EcRE-Luc; expressed in transfected cells; host or cells: COS-7
T1 sequence (Q96RI1 1-486): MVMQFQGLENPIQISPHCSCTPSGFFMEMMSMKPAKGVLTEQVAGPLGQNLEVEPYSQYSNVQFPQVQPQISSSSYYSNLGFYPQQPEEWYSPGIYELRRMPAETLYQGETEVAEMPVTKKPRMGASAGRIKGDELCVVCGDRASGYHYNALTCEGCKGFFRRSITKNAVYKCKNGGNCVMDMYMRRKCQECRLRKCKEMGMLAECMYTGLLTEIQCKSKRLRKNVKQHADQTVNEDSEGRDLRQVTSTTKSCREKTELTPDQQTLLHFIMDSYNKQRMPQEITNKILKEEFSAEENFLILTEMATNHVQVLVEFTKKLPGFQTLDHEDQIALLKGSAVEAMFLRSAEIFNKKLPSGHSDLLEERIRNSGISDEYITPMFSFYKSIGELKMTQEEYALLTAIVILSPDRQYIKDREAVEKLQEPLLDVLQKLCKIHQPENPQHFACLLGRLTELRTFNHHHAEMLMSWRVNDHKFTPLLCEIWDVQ
Description: COS-7 cells were cotransfected with plasmids encoding full length FXR.
For transient transfection assay, COS-7 cells were maintained in DMEM containing 10% fetal bovine serum and were transiently transfected using Lipofectamine 2000 (Invitrogen). Before 24 h of transfection, 24-well plates were plated. The cells were co-transfected with plasmids encoding full-length FXR and the cognate luciferase reporter EcRE-Luc. Ligands were added 5 hours after transfection. Cells were harvested 24 hours later for the luciferase assays according to the manufacturer's instructions (Dual-Luciferase® Reporter Assay System, Promega). Luciferase activities were normalized to renilla activity co-transfected as an internal control.

[4] = test system: human cervical carcinoma Hela cells; assay: MTT cell viability assay, Hela; type: cell-based; settings: 48 h, read-out: Cell viability as a percentage of the cells treated with DMSO, Hela
From the text: as §1

[5] = test system: db/db mice; assay: Hepatic triglyceride, liver histology, serum ALT and ALP in high-fat diet fed db/db mice; type: in vivo, mouse; settings: 10 mg/kg for 10 days
Description: Liver tissues fixed in 4% paraformaldehyde in example 5 were performed for H&E staining by standard procedures. Liver tissues fixed in 4% paraformaldehyde were embedded in optimum cutting temperature compound (OCT), and cryosectioned. Frozen liver sections were stained with 0.3% oil red O according to standard procedures.
The triglyceride levels in liver tissues from mice treated with compounds were analyzed using Tissue triglyceride assay kit (Applygen, Beijing, China).
Alkaline Phosphatase (ALP) is a marker of cholestasis. Cholestasis can be suspected when there is an elevation of ALP enzymes. In fact, greater than 90% of patients with bile stasis will have an elevated alkaline phosphatase. […] The aminotransferase is used to evaluate the presence of hepatitis and may be elevated in cholestasis or with common bile duct obstruction. In this example, 8-10 week age db/db mice were fed with high-fat diet and treated with 10 mg/kg of compounds once daily for 10 days as in Example 5. The activities of serum ALP and ALT were analyzed using ALP kit and ALT kit, respectively (Nanjing Jiancheng Engineering Institute, China).

[6] = test system: human breast cancer MCF7 cells; assay: MTT cell viability assay, MCF-7; type: cell-based; settings: 48 h, read-out: Cell viability as a percentage of the cells treated with DMSO, MCF-7
From the text: as §1

[7] = test system: RA-resistant human colon cancer HCT116 cells; assay: MTT cell viability assay, HCT116; type: cell-based; settings: 48 h, read-out: Cell viability as a percentage of the cells treated with DMSO, HCT116; for viability at 20 µM: HCT-116, 20 uM; for viability at 40 µM: HCT-116, 40 uM
From the text: as §1

[8] = test system: db/db mice; assay: Serum/blood metabolic parameters in high-fat diet fed db/db mice; type: in vivo, mouse; settings: 10 mg/kg, treat for 10 days, vehicle 527 ± 63
From the text: KK-Ay mice (KK/Upj-Ay/J) are animal models with moderate obese and diabetes with insulin resistance. KK-Ay mice develop hyperglycemia, hyperinsulinemia, glucose intolerance and obesity as well as fat accumulation in liver by eight weeks of age. Pancreatic islets are hypertrophied and the β-cells are degranulated. db/db mice (BKS.Cg-Dockr+/+ Lepr^db/Jnju) are animal models of type II diabetes. They have the phenotype of insulin resistance. These model mice were used to detect the functions of our compounds on metabolic diseases.
8-10 weeks age mice were maintained as example 4, and fed with high-fat diet (Research Diets, D12492). Mice were i.p. injected with compounds once daily for 7, 10, 11 or 14 days as indicated in each table. After the last compounds injection, mice were fasted for 6 hours with free access to water, and then sacrificed. Part of each liver was fixed in 4% paraformaldehyde for H&E staining, and other liver tissues were stored in liquid nitrogen for enzyme activity measurement and gene expression analysis by RT-PCR. The serums were collected to measure metabolic parameters, including serum glucose, insulin, cholesterol, free fatty acid (FFA) and triglyceride levels. Serum glucose was analyzed using glucose oxidase method (Applygen, Beijing, China). The blood glucose in Table 11 was measured with Berenger blood glucose test strips (B/BRAUN, German) from blood by cutting mice tail after the 6th injection and following fast for 16 hours. Serum cholesterol and FFA were analyzed using Cholesterol Assay Kit and FFA Assay Kit (Bioassay Systems, USA; Nanjing Jiancheng Bioengineering Institute, China; FFA ELISA, R&D, USA), respectively. Serum triglyceride was analyzed using Triglyceride Assay Kit (Bioassay Systems, USA; WAKO Chemicals Inc., Japan; Applygen, Beijing, China). Liver triglyceride was analyzed using Tissue triglyceride assay kit (Applygen, Beijing, China). Serum insulin levels were measured by the Ultra Sensitive Mouse Insulin ELISA Kit (Crystal Chem. Inc., USA). RNA was isolated using Tissue RNA kit (Omega Bio-Tek, GA). The first strand cDNA were obtained by TAKARA reverse transcription kit. Real-time quantitative PCR were performed on a CFX96™ Real-Time PCR Detection System (Bio-Rad) using SYBR Premix Ex Taq™ (TAKARA). Relative mRNA expression levels were normalized to actin levels. […]

[9] = molecular target: T2, FXR ligand binding domain (LBD) (Homo sapiens, UniProt Q96RI1); assay: AlphaScreen assay: FXR LBD recruitment of coregulator peptide motifs (SRC2-3, SRC1-2); type: biochemical; settings: Table 2
T2 construct: made in house
T2 sequence (Q96RI1 262-486 limits assumed): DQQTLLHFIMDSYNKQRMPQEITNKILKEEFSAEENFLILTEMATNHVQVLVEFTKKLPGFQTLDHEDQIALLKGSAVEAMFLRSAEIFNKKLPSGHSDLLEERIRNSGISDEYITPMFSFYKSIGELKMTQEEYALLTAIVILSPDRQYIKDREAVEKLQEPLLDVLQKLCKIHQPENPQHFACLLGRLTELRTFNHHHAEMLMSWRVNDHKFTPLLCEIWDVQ
Description: In search of novel ligands for FXR, we used FXR ligand binding domain (LBD) as a bait to screen chemical libraries based on AlphaScreen biochemical assay, which determines the efficacy of small molecules in influencing binding affinity of FXR with coregulator peptides (see e.g., Jin et al., (2013) Nature communications 4, 1937).
The binding of the cofactor peptide motifs to FXR ligand binding domain (LBD) in response to ligands was determined by AlphaScreen assays using a hexahistidine detection kit from Perkins-Elmer. The FXR LBD protein was purified as described previously (see e.g., Jin et al., (2013) Nature communications 4, 1937). The experiments were conducted with approximately 20-40 nM receptor LBD and 20 nM biotinylated cofactor peptides in the presence of 5 μg/ml donor and acceptor beads in a buffer containing 50 mM MOPS, 50 mM NaF, 0.05 mM CHAPS, and 0.1 mg/ml bovine serum albumin, all adjusted to a pH of 7.4.

[10] = test system: inflammatory cytokines in tissues of db/db mice; assay: Inflammatory cytokine mRNA levels in tissues of high-fat diet fed db/db mice (RT-PCR); type: in vivo, mouse; settings: 5 mg/kg
From the text: In this example, we detected the levels of various inflammatory cytokines including iNOS, IFNγ, TGFβ, TNFα, COX2, IL-1β, IL-6, SAA1, MIP-1α and CD36 in liver, kidney, white adipose tissue (WAT) in various mice models, including wild type mice treated with APAP in example 4, high-fat diet fed diabetic and obesity db/db and KK-Ay mice in example 5, high-fat diet fed wild-type mice in Example 5, as well as in primary hepatocytes with LPS induced inflammation, using RT-PCR.

[11] = SRC1-2 peptide, read-out: EC50 (μM) of FXR binding by AlphaScreen assay recruit SRC1-2
[12] = SRC2-3 peptide, read-out: EC50 (μM) of FXR binding by AlphaScreen assay recruit SRC2-3

Row | Structure (SMILES) | viability at 20 µM [1] [%] | viability at 40 µM [1] [%] | viability at 20 µM [2] [%] | viability at 40 µM [2] [%] | Cell-based FXR transactivation Fold changes by 5 μM compound [3] | EC50 [3] [nM] | viability at 20 µM [4] [%] | viability at 40 µM [4] [%] | Hepatic triglyceride (mM/g) ([5]; vehicle 148 ± 14) | Serum ALT (U/L) ([5]; vehicle 377 ± 48, Table 15) | viability at 20 µM [6] [%] | viability at 40 µM [6] [%] | viability at 20 µM [7] [%] | viability at 40 µM [7] [%] | Serum Glucose (mg/dl) [8] | EC50 [9, 11] [µM] | EC50 [9, 12] [µM] | mRNA level of iNOS (fold), Liver tissue ([10]; vehicle 1.06 ± 0.14) | mRNA level of iNOS (fold), Colon tissue ([10]; vehicle 1.12 ± 0.23)
1 | O=C(OC1CC2CCC1C2)c1ccc([N+](=O)[O-])cc1 (centres unmarked) [XD-25, bicyclo[2.2.1]-heptan-2-yl 4-nitrobenzoate] | 100 ± 5 | 90 ± 4 | 100 ± 4 | 89 ± 4 | 1.5 | < 1000 | 100 ± 2 | 100 ± 2 | 116 ± 5 ^c mM/g | 124 ± 21 ^a U/L | 100 ± 2 | 97 ± 2 | 79 ± 2 | 66 ± 5 | 389 ± 47^a mg/dl |  |  |  | 
2 | O=C(OC1CCC2CCCCC2C1)c1ccc(F)cc1 (centres unmarked) [XD-33, decahydro-naphthalen-2-yl 4-fluorobenzoate] | 100 ± 2 | 95 ± 2 | 100 ± 2 | 100 ± 2 | 2 | 1000 to 10000 | 97 ± 2 | 98 ± 2 |  |  | 100 ± 2 | 95 ± 2 | 97 ± 2 | 95 ± 2 | 400 ± 23^a mg/dl | < 1 | < 1 |  | 
3 | Cc1cc(C(=O)OC2CCC3CCCCC3C2)ccc1N (centres unmarked) [XD-31, decahydro-naphthalen-2-yl 4-amino-3-methylbenzoate] | 100 ± 1 | 90 ± 1 | 100 ± 1 | 41 ± 1 | −5 | < 1000 | 74 | 42 ± 1 |  |  | 100 ± 1 | 100 ± 1 | 63 ± 1 | 59 ± 1 | 326 ± 51^a mg/dl | < 1 | < 1 |  | 
4 | O=C(OC1CCCCCCC1)c1ccc([N+](=O)[O-])cc1 [XD-24, cyclooctyl 4-nitrobenzoate] |  |  |  |  | 1.2 | < 1000 |  |  |  |  |  |  |  |  | 307 ± 39^a mg/dl |  |  |  | 
5 | Cc1cc(C(=O)OC2CC3CCC2(C)C3(C)C)ccc1[N+](=O)[O-] (centres unmarked) [XD-15, 1,7,7-trimethyl-bicyclo[2.2.1]-heptan-2-yl 3-methyl-4-nitro-benzoate] | 79 | 72 ± 3 | 100 ± 2 | 62 ± 3 | 3 | 1000 to 10000 | 89 ± 6 | 70 ± 3 |  |  | 81 ± 4 | 70 | 59 ± 3 | 40 ± 3 |  |  |  | 0.47 ± 0.21^a fold | 0.41 ± 0.16^a fold
